Measured values published in PMC6588243, “Fate of ptaquiloside—A bracken fern toxin—In cattle” (PLoS ONE, 2019).
Read-outs that look alike come from different tables or passages of the source.

Legend:
Assay type in all cases: in vivo, Jersey heifers
[1] = Presence of glucuronides and sulphates in urine (B-glucuronidase/arylsulfatase incubation); conditions: urine after iv PTA
Description: The presence of glucuronides and sulphates was assessed by incubating 1 ml of buffered urine samples in 0.1 M acetic acid buffer (pH 5) with or without addition of 100 μl of B-glucuronidase/arylsulfatase at 37°C for 3 hours on a shaking water bath. Afterwards, an aliquot of 950 μl of each samples were cleaned on the Oasis HLB cartridges and analysed as described for urine samples [22].

[2] = Toxicokinetics in plasma after oral administration of bracken extract or dried bracken fern; conditions: for AUC0-∞ / MTT mean transit time: PTB in plasma; for Cmax / Tmax / k el: female, Jersey, plasma, po; for Cmax: read-out: Cmax maximum concentration; for k el: read-out: λz terminal slope (converted)
Description: (§1) Two heifers (no’s 4848 and 4849) were used in a series of five experiments (Table 1) in a cross-over design including intravenous administration of pure PTA, oral administration of bracken extract and oral administration of dried bracken fern. At least 2 weeks elapsed between each experiment.
Oral exposure, bracken extract. Bracken extract was administered orally by gavage in Experiment 2 (170 and 172 mL) and Experiment 5 (820 and 850 mL), to obtain PTA doses of 0.41 and 2 mg kg^-1 b.w (1.025 and 5.000 μmoles kg^-1), respectively. Blood and urine samples were collected up to 48 hours after gavage and samples were processed and stored as described previously.
Oral exposure, dried bracken fern. In Experiment 3, dried bracken fern was milled to a fine powder. Immediately before administration, the powder was mixed with water to produce a slurry (15 g of bracken per 100 mL of water). The slurry was administered orally by gavage (400 mL and 380 mL) corresponding to a PTA dose of 1.6 mg kg^-1 b.w (4 μmoles kg^-1). Blood and urine samples were collected up to 72 hours after gavage and the samples were processed and stored as described above.
(§2) Concentrations of PTA in plasma of individual animals were evaluated by non-compartmental analysis. Toxicokinetic variables were calculated using standard kinetic equations. The area under the curve (AUC) and the area under the first moment curve (AUMC) were determined using combined linear and natural logarithm trapezoidal rules. The terminal elimination rate was determined using the last three data points of the curve.
(§3) PTA and PTB were analysed by LC-MS after purification using solid phase extraction (SPE) columns as reported in Aranha et al.. The limit of quantification of PTA and PTB in plasma was 3.0 x 10^−3 μM and 9.30 x 10^−3 μM, respectively. Limit of quantifications in diluted urine was 13 x 10^−3 μM for PTA and 8.28 x 10^−3μM for PTB.

[3] = Urinary recovery of PTA and PTB after intravenous administration of PTA; conditions: twelve hours after iv administration of PTA
Description: Intravenous administration of PTA. In Experiment 1 the dose of purified PTA (0.21 mg kg^-1 body weight (b.w.) / 0.527 μmoles kg^-1) was dissolved in 10 mL of sterile water in a brown glass vial 1 hour before administration and protected from light. The solution was injected through a catheter (Cavafix Certo: 45 cm, 16 G; B. Braun Melsungen AG, Melsungen, Germany) placed in the right jugular vein. Blood samples were collected through another catheter placed in the left jugular vein. Blood samples were collected in heparinized glass tubes before and at predetermined times (10, 20, 30, 45 min and 1, 2, 4, 6, 8, 12, 21 and 24 hours) after PTA administration. The blood was centrifuged for 15 min at 3000 g to separate plasma which then was stored immediately at -18°C until assayed within a week following the method of Aranha et al.. Urine was collected quantitatively in urinary bags (Ratiomed GmBH, München, Germany) through a Foley catheter (Rusch Silasil no 16; Teleflex, Milan, Italy) inserted into the bladder. […]
as §3

[4] = Toxicokinetics of PTA and PTB in plasma after intravenous administration of PTA
Description: as §1
Intravenous administration of PTA. In Experiment 1 the dose of purified PTA (0.21 mg kg^-1 body weight (b.w.) / 0.527 μmoles kg^-1) was dissolved in 10 mL of sterile water in a brown glass vial 1 hour before administration and protected from light. The solution was injected through a catheter (Cavafix Certo: 45 cm, 16 G; B. Braun Melsungen AG, Melsungen, Germany) placed in the right jugular vein. Blood samples were collected through another catheter placed in the left jugular vein. Blood samples were collected in heparinized glass tubes before and at predetermined times (10, 20, 30, 45 min and 1, 2, 4, 6, 8, 12, 21 and 24 hours) after PTA administration. The blood was centrifuged for 15 min at 3000 g to separate plasma which then was stored immediately at -18°C until assayed within a week following the method of Aranha et al.. Urine was collected quantitatively in urinary bags (Ratiomed GmBH, München, Germany) through a Foley catheter (Rusch Silasil no 16; Teleflex, Milan, Italy) inserted into the bladder. Samples were collected before and at predetermined times (1, 2, 4, 6, 8, 12, 20 and 24 hours) after PTA administration. Two replicates from each sample were diluted 10 times (0.5 mL: 4.5 mL) with 0.1 M acetic acid, buffered to pH 5 with ammonium acetate and frozen immediately at -18°C until assayed within a week following the method of Aranha et al.. […] In this experiment, PTA was dissolved in sterile water immediately before injection.
as §2, §3

[5] = oral bracken extract, PTA dose 1.03 μmoles kg^-1, heifer no 4848
[6] = oral bracken extract, PTA dose 1.03 μmoles kg^-1, heifer no 4849
[7] = oral bracken extract, PTA dose 5.02 μmoles kg^-1, heifer no 4848
[8] = oral bracken extract, PTA dose 5.02 μmoles kg^-1, heifer no 4849
[9] = oral dried bracken, PTA dose 4.02 μmoles kg^-1, heifer no 4848
[10] = oral dried bracken, PTA dose 4.02 μmoles kg^-1, heifer no 4849
[11] = bovine, 1.03 μmoles kg^-1, PTB in plasma, oral bracken extract, PTA dose 1.03 μmoles kg^-1, heifer no 4848
[12] = bovine, 1.03 μmoles kg^-1, PTB in plasma, oral bracken extract, PTA dose 1.03 μmoles kg^-1, heifer no 4849
[13] = bovine, 4.02 μmoles kg^-1, PTB in plasma, oral dried bracken, PTA dose 4.02 μmoles kg^-1, heifer no 4848
[14] = bovine, 4.02 μmoles kg^-1, PTB in plasma, oral dried bracken, PTA dose 4.02 μmoles kg^-1, heifer no 4849
[15] = bovine, 5.02 μmoles kg^-1, PTB in plasma, oral bracken extract, PTA dose 5.02 μmoles kg^-1, heifer no 4848
[16] = bovine, 5.02 μmoles kg^-1, PTB in plasma, oral bracken extract, PTA dose 5.02 μmoles kg^-1, heifer no 4849

## Cc1cc2c(c(C)c1CCO)C(=O)[C@H](C)C2 [PTB, pterosin B]
[1]
  conjugation with glucuronic acid or sulphate in urine: not conjugated with either glucuronic acid or sulphate
[2]; [5]
  AUC0-∞: 0.177 µM·h
  MTT mean transit time: 3.82 h
[2]; [6]
  AUC0-∞: 0.367 µM·h
  MTT mean transit time: 4.55 h
[2]; [7]
  AUC0-∞: 0.594 µM·h
  MTT mean transit time: 2.89 h
[2]; [8]
  AUC0-∞: 0.657 µM·h
  MTT mean transit time: 3.02 h
[2]; [9]
  AUC0-∞: 0.897 µM·h
  MTT mean transit time: 3.29 h
[2]; [10]
  AUC0-∞: 0.428 µM·h
  MTT mean transit time: 3.58 h
[2]; bracken extract or dried ferns
  PTB in plasma and urine after oral administration: detected in both plasma and urine
[2]; [11]
  Cmax: 28 nM
  k el: 6.5e-05 s⁻¹
[2]; bovine, 1.03 μmoles kg^-1, PTB in plasma, oral bracken extract, PTA dose 1.03 μmoles kg^-1, heifer no 4848, read-out: Tmax time at maximum concentration
  Tmax: 120 min
[2]; [12]
  Cmax: 43 nM
  k el: 2.78e-05 s⁻¹
[2]; bovine, 1.03 μmoles kg^-1, PTB in plasma, oral bracken extract, PTA dose 1.03 μmoles kg^-1, heifer no 4849, read-out: Tmax time at maximum concentration
  Tmax: 30 min
[2]; [13]
  Cmax: 182 nM
  k el: 8.56e-05 s⁻¹
[2]; bovine, 4.02 μmoles kg^-1, PTB in plasma, oral dried bracken, PTA dose 4.02 μmoles kg^-1, heifer no 4848, read-out: Tmax time at maximum concentration
  Tmax: 30 min
[2]; [14]
  Cmax: 74 nM
  k el: 7.78e-05 s⁻¹
[2]; bovine, 4.02 μmoles kg^-1, PTB in plasma, oral dried bracken, PTA dose 4.02 μmoles kg^-1, heifer no 4849, read-out: Tmax time at maximum concentration
  Tmax: 120 min
[2]; [15]
  Cmax: 160 nM
  k el: 0.000106 s⁻¹
[2]; bovine, 5.02 μmoles kg^-1, PTB in plasma, oral bracken extract, PTA dose 5.02 μmoles kg^-1, heifer no 4848, read-out: Tmax time at maximum concentration
  Tmax: 60 min
[2]; [16]
  Cmax: 174 nM
  k el: 8.06e-05 s⁻¹
[2]; bovine, 5.02 μmoles kg^-1, PTB in plasma, oral bracken extract, PTA dose 5.02 μmoles kg^-1, heifer no 4849, read-out: Tmax time at maximum concentration
  Tmax: 45 min
[2]; cattle, PTB, oral bracken extract and bracken fern, read-out: time to maximum concentration in plasma (Tmax)
  Tmax: ~60 min
[3]
  dose recovered in urine as PTB: 12%
[4]; PTB in plasma after iv PTA 0.141 μmoles kg^-1, heifer no 4849, head prints Experiment 2
  AUC0-∞: 0.319 µM·h
[4]; PTB in plasma after iv PTA 0.231 μmoles kg^-1, heifer no 4848, head prints Experiment 2
  AUC0-∞: 0.284 µM·h
[4]; PTB in plasma after iv PTA 0.527 μmoles kg^-1, heifer no 4848, Experiment 1
  AUC0-∞: 0.596 µM·h
[4]; PTB in plasma after iv PTA 0.527 μmoles kg^-1, heifer no 4849, Experiment 1
  AUC0-∞: 0.654 µM·h
[4]; female, Jersey, cattle, plasma, 0.21 mg kg^-1 b.w., iv PTA, first sampling point, read-out: time of peak plasma concentration of the metabolite after administration of PTA (converted)
  Tmax: 10 min
[4]; heifer no 4848, Experiments 1 and 4
  ratio of AUC PTB to AUC PTA: approx. 0.4
[4]; heifer no 4849, additional iv experiment with lower dose
  ratio of AUC PTB to AUC PTA: 0.76
